Where “and” joins values, the source holds several entries; their conditions need not be identical. Identical values can stand only once. Toxic doses and inconclusive results are not listed.

The text below walks through data of PubChem BioAssay AID192 (DTP/NCI, 2004).

This assay relates to BDF1 mice, B16 melanoma ip, median survival T/C. Description: NCI In Vivo Anticancer Drug Screen. Data for tumor model B16 Melanoma (intraperitoneal) in B6D2F1 (BDF1) mice. The settings on record: endpoint: median survival time, higher = longer survival. Summed up:
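Antitumor activity is assessed in mice bearing a transplanted tumor, with survival or tumor size compared against vehicle-dosed controls and expressed as T/C.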

[1] abbreviates: dose: 25.0 mg/kg/injection, schedule: Q01DX009 (ip), vehicle: saline.
[2] abbreviates: dose: 50.0 mg/kg/injection, schedule: Q01DX009 (ip), vehicle: saline.
The mark [3] stands for this setting: dose: 100.0 mg/kg/injection, schedule: Q01DX009 (ip), vehicle: Klucel (hydroxypropylcellulose) (HPC).
Where [4] appears, read: dose: 200.0 mg/kg/injection, schedule: Q01DX009 (ip), vehicle: Klucel (hydroxypropylcellulose) (HPC).
[5] abbreviates: dose: 400.0 mg/kg/injection, schedule: Q01DX009 (ip), vehicle: Klucel (hydroxypropylcellulose) (HPC).
The mark [6] stands for this setting: dose: 12.5 mg/kg/injection, schedule: Q01DX009 (ip), vehicle: saline.
The mark [7] stands for this setting: dose: 100.0 mg/kg/injection, schedule: Q01DX009 (ip), vehicle: saline.
The mark [8] stands for this setting: dose: 200.0 mg/kg/injection, schedule: Q01DX009 (ip), vehicle: saline.
Where [9] appears, read: dose: 25.0 mg/kg/injection, schedule: Q01DX009 (ip), vehicle: Klucel (hydroxypropylcellulose) (HPC).
Setting [10] is: dose: 50.0 mg/kg/injection, schedule: Q01DX009 (ip), vehicle: Klucel (hydroxypropylcellulose) (HPC).

On to `O=C(O)c1ccccc1C(=O)c1ccc(CBr)cc1`, for which the T/C runs as follows: (dose: 0.05 mg/kg/injection, schedule: Q01DX009 (ip), vehicle: saline) 100 % of control; (dose: 0.1 mg/kg/injection, schedule: Q01DX009 (ip), vehicle: saline) 97 % of control; (dose: 0.2 mg/kg/injection, schedule: Q01DX009 (ip), vehicle: saline) 100 % of control; (dose: 0.38 mg/kg/injection, schedule: Q04DX003 (ip), vehicle: saline with Tween-80) 91 % of control; (dose: 0.75 mg/kg/injection, schedule: Q04DX003 (ip), vehicle: saline with Tween-80) 95 % of control; (dose: 1.5 mg/kg/injection, schedule: Q01DX009 (ip), vehicle: saline with Tween-80) 87 % of control. The T/C (dose: 1.5 mg/kg/injection, schedule: Q04DX003 (ip), vehicle: saline with Tween-80) was 100 % of control and the T/C (dose: 1.56 mg/kg/injection, schedule: Q04DX003 (ip), vehicle: saline with Tween-80) was 100 % of control.
For the compound `C1CCN(CCC2CCNCC2)CC1`, the T/C reads like this: under setting [1], 109 % of control; under setting [2], 90 % of control.
Regarding `Cc1ccc(CCCC(=O)O)c(C)c1`, the T/C was 104 % of control under setting [3], 96 % of control under setting [4] and 97 % of control under setting [5].
Take `C1CCN(CN2CCCCC2)CC1`: the T/C is 97 % of control under setting [6] and 93 % of control under setting [1].
Consider `COC1OC(CO)C(O)C(NC(=O)N(C)N=O)C1O` (configuration not stated), for which the T/C runs as follows: under setting [6], 105 % of control; under setting [2], 150 % of control; under setting [7], 176 % of control and 195 % of control; under setting [8], 196 % of control and 209 % of control.
For `CS(=O)(=O)Nc1ccc(Nc2c3ccccc3nc3cc([N+](=O)[O-])ccc23)cc1`, the T/C is, setting by setting: (dose: 0.6 mg/kg/injection, schedule: Q01DX009 (ip), vehicle: saline sonified) 112 % of control; (dose: 2.5 mg/kg/injection, schedule: Q01DX009 (ip), vehicle: saline sonified) 154 % of control; (dose: 50.0 mg/kg/injection, schedule: Q01DX001 (ip), vehicle: saline sonified) 158 % of control.
`COc1cc2c3c(c1)-c1nc4ccccc4cc1CN3CCC2`: the T/C reads like this: (dose: 25.0 mg/kg/injection, schedule: Q04DX003 (ip), vehicle: alcohol) 111 % of control; (dose: 50.0 mg/kg/injection, schedule: Q04DX003 (ip), vehicle: alcohol) 104 % of control; (dose: 100.0 mg/kg/injection, schedule: Q04DX003 (ip), vehicle: alcohol) 106 % of control; (dose: 200.0 mg/kg/injection, schedule: Q04DX003 (ip), vehicle: alcohol) 98 % of control.
As to `CCc1c2cc(OC)c(OC)cc2cc2c3cc(OC)c(OC)cc3cc[n+]12` (tested in a mixture with another compound), the T/C was 98 % of control (dose: 4.8 mg/kg/injection, schedule: Q01DX009 (ip), vehicle: saline); 98 % of control (dose: 9.5 mg/kg/injection, schedule: Q01DX009 (ip), vehicle: saline); 99 % of control (dose: 19.0 mg/kg/injection, schedule: Q01DX009 (ip), vehicle: saline); 117 % of control (dose: 37.5 mg/kg/injection, schedule: Q01DX009 (ip), vehicle: saline with Tween-80); 95 % of control (dose: 38.0 mg/kg/injection, schedule: Q01DX009 (ip), vehicle: saline); 108 % of control (dose: 75.0 mg/kg/injection, schedule: Q01DX009 (ip), vehicle: saline with Tween-80). Further, where the note is “dose: 150.0 mg/kg/injection, schedule: Q01DX009 (ip), vehicle: saline with Tween-80”, the T/C is 98 % of control.
Turning to `COc1ccc(N=NN(C(C)=O)c2ccccc2)cc1`, the T/C was 102 % of control under setting [3] and 102 % of control under setting [4].
Take `Clc1ccc(/C(=[C](\[Hg]/[C](=C(\c2ccccc2)c2ccc(Cl)cc2)c2ccccc2)c2ccccc2)c2ccccc2)cc1`: the T/C is, setting by setting: under setting [3], 105 % of control; under setting [4], 100 % of control; under setting [5], 94 % of control.
As to `CCCCCCCCCCCCCCCCCCNC(=O)Oc1ccc(Cl)c(C)c1`, the T/C by setting is: (dose: 100.0 mg/kg/injection, schedule: Q04DX003 (ip), vehicle: gum acacia) 88 % of control; (dose: 200.0 mg/kg/injection, schedule: Q04DX003 (ip), vehicle: gum acacia) 90 % of control.
As to `Cc1ccc(Cl)cc1NC(=O)Nc1ccccc1Cl`, the T/C is, setting by setting: (dose: 0.78 mg/kg/injection, schedule: Q01DX009 (ip), vehicle: saline with Tween-80) 88 % of control; (dose: 1.56 mg/kg/injection, schedule: Q01DX009 (ip), vehicle: saline with Tween-80) 90 % of control; (dose: 3.13 mg/kg/injection, schedule: Q01DX009 (ip), vehicle: saline with Tween-80) 93 % of control; (dose: 6.25 mg/kg/injection, schedule: Q01DX009 (ip), vehicle: saline with Tween-80) 90 % of control; under setting [9], 89 % of control.
For `CNC(=O)Oc1coc(CCl)cc1=O`, the T/C was 93 % of control (dose: 12.0 mg/kg/injection, schedule: Q01DX009 (ip), vehicle: Klucel (hydroxypropylcellulose) (HPC)); 96 % of control (dose: 18.0 mg/kg/injection, schedule: Q01DX009 (ip), vehicle: Klucel (hydroxypropylcellulose) (HPC)); 96 % of control (dose: 27.0 mg/kg/injection, schedule: Q01DX009 (ip), vehicle: Klucel (hydroxypropylcellulose) (HPC)); 106 % of control (dose: 40.0 mg/kg/injection, schedule: Q01DX009 (ip), vehicle: Klucel (hydroxypropylcellulose) (HPC)).
Turning to `O=C(O)O`, the T/C is, setting by setting: under setting [7], 102 % of control; under setting [8], 97 % of control; (dose: 400.0 mg/kg/injection, schedule: Q01DX009 (ip), vehicle: saline) 94 % of control.
With `COC1=C(C)C2CC(=O)OC3CC4C(C)CC(O)C(=O)C4(C)C(C1=O)C32C` (configuration not stated), the T/C (dose: 0.5 mg/kg/injection, schedule: Q01DX009 (ip), vehicle: saline + alcohol) was 110 % of control; the T/C (dose: 1.0 mg/kg/injection, schedule: Q01DX009 (ip), vehicle: saline + alcohol) is 107 % of control; the T/C (dose: 2.0 mg/kg/injection, schedule: Q01DX009 (ip), vehicle: saline + alcohol) is 99 % of control; the T/C (dose: 4.0 mg/kg/injection, schedule: Q01DX009 (ip), vehicle: saline + alcohol) was 87 % of control; the T/C (dose: 8.0 mg/kg/injection, schedule: Q01DX009 (ip), vehicle: saline + alcohol) is 99 % of control.
On to `C=CCOP(=O)(OCC=C)OCC=C`, for which the T/C was 96 % of control under setting [9] and 100 % of control under setting [10].
Consider `COc1cccc(/C=N/NC(=O)c2ccccc2N2CCCC2)c1O`, for which the T/C was 89 % of control (dose: 12.5 mg/kg/injection, schedule: Q01DX009 (ip), vehicle: olive oil, sesame oil, peanut oil); 89 % of control (dose: 50.0 mg/kg/injection, schedule: Q01DX009 (ip), vehicle: olive oil, sesame oil, peanut oil); 87 % of control (dose: 100.0 mg/kg/injection, schedule: Q01DX009 (ip), vehicle: olive oil, sesame oil, peanut oil); 86 % of control (dose: 200.0 mg/kg/injection, schedule: Q01DX009 (ip), vehicle: olive oil, sesame oil, peanut oil); 96 % of control (dose: 400.0 mg/kg/injection, schedule: Q01DX009 (ip), vehicle: olive oil, sesame oil, peanut oil).
As to `Nc1nc(=O)n(C2OC(CO)C(O)C2O)cc1F` (configuration not stated), the T/C is 116 % of control (dose: 6.25 mg/kg/injection, schedule: Q01DX009 (ip), vehicle: saline); 109 % of control (dose: 9.0 mg/kg/injection, schedule: Q01DX009 (ip), vehicle: saline); 96 % of control under setting [6]; 116 % of control (dose: 18.0 mg/kg/injection, schedule: Q01DX009 (ip), vehicle: saline); 118 % of control (dose: 24.0 mg/kg/injection, schedule: Q01DX009 (ip), vehicle: saline); 103 % of control (dose: 54.0 mg/kg/injection, schedule: Q01DX009 (ip), vehicle: saline).
In the case of `C1=CC2(OCCO2)C2CC=CC3(OCCO3)C2C1` (configuration not stated), the T/C by setting is: under setting [10], 104 % of control; under setting [3], 97 % of control.
In the case of `CC(Br)C(=O)NC(CC(N)=O)C(=O)O` (configuration not stated), the T/C runs as follows: (dose: 50.0 mg/kg/injection, schedule: Q01DX009 (ip), vehicle: saline with Tween-80) 91 % of control; (dose: 100.0 mg/kg/injection, schedule: Q01DX009 (ip), vehicle: saline with Tween-80) 104 % of control; (dose: 200.0 mg/kg/injection, schedule: Q01DX009 (ip), vehicle: saline with Tween-80) 93 % of control.
Regarding `Cc1cccc(C)c1NS(=O)(=O)c1ccccc1`, the T/C is 87 % of control under setting [4] and 92 % of control under setting [5].
